The numbers were not newly measured in patent publication US20220241230A1, “DICLOFENAC SACHET COMPOSITION” (Patrin Pharma, Inc., priority 2021, published 2022), which cites them from elsewhere.

The conditions of series [1]: commercially available sugar coated tablets.
For series [2] the following is noted: 100 mg and 50 mg tablets, versus placebo.
Where [3] appears, read: 50 mg and 100 mg sugar coated tablets.

As for `O=C(O)Cc1ccccc1Nc1c(Cl)cccc1Cl` [diclofenac potassium, Diclofenac potassium], in series [1], the terminal half-life result was “about 1.9 hours”. Where the note is “50 mg and 100 mg immediate release tablets, versus placebo, statistical significance not reported”, the “incidence of headache recurrence within 48 hours of treatment” value is listed as “higher incidence of headache recurrence than patients treated with placebo”. In addition, under setting [3], the “effectiveness against phonophobia two hours after treatment” value is given as “only the 100 mg dose was effective”, the “effectiveness against photophobia eight hours after treatment” value is recorded as “both doses were effective”, the “effectiveness against photophobia two hours after treatment” value is reported as “neither dose was effective” and the “relief of migraine pain within two hours of treatment” value is “ability of both doses to relieve migraine pain”. Also, the “effectiveness against photophobia eight hours after treatment, 50 mg dose” value (50 mg sugar coated tablets) is “effective”.
Take `O=C(O)Cc1ccccc1Nc1c(Cl)cccc1Cl` [diclofenac, [(2,6-dichloro-anilino)-2-phenyl]-2-acetic acid]: in series [2], the “effectiveness against migraine pain within two hours of treatment” value is given as “both strengths were effective”; the “effectiveness against phonophobia and photophobia within two hours” value is “only the 100 mg strength was effective”.
